Assay results as given in the CheMixHub viscosity set.
± gives the uncertainty stated by the source.

Assay: xn = mol fraction of the nth substance listed
Conditions: 101 kPa

CCCC[N+](CCCC)(CCCC)CCCC.O=[N+]([O-])[O-] + O
viscosity [mPa·s]
Conditions | 298.15 K | 308.15 K | 318.15 K | 323.15 K
x1 = 0.000175 | 0.9058 ± 0.024 | 0.7311 ± 0.019 | 0.6051 ± 0.016 | 0.5548 ± 0.015
x1 = 0.0007208 | 0.9399 ± 0.025 | 0.7555 ± 0.02 | 0.6231 ± 0.017 | 0.5704 ± 0.015
x1 = 0.0009037 | 0.9512 ± 0.025 | 0.7635 ± 0.02 | 0.629 ± 0.017 | 0.5756 ± 0.015
x1 = 0.001282 | 0.9739 ± 0.026 | 0.7798 ± 0.021 | 0.6411 ± 0.017 | 0.586 ± 0.015
x1 = 0.001513 | 0.9877 ± 0.026 | 0.7898 ± 0.021 | 0.6484 ± 0.017 | 0.5923 ± 0.016
x1 = 0.002132 | 1.024 ± 0.027 | 0.8156 ± 0.022 | 0.6675 ± 0.018 | 0.609 ± 0.016
x1 = 0.00641 | 1.328 ± 0.035 | 1.024 ± 0.027 | 0.8259 ± 0.022 | 0.747 ± 0.02
x1 = 0.006556 | 1.335 ± 0.036 | 1.035 ± 0.028 | 0.8318 ± 0.022 | 0.7536 ± 0.02
x1 = 0.009813 | 1.592 ± 0.043 | 1.21 ± 0.032 | 0.9594 ± 0.025 | 0.8647 ± 0.023
x1 = 0.0134 | 1.907 ± 0.051 | 1.431 ± 0.038 | 1.107 ± 0.029 | 1.002 ± 0.027
x1 = 0.0182 | 2.346 ± 0.063 | 1.735 ± 0.046 | 1.333 ± 0.036 | 1.182 ± 0.031
x1 = 0.01938 | 2.474 ± 0.067 | 1.813 ± 0.048 | 1.399 ± 0.037 | 1.241 ± 0.033
x1 = 0.02698 | 3.292 ± 0.09 | 2.346 ± 0.063 | 1.808 ± 0.048 | 1.573 ± 0.042
x1 = 0.03856 | 4.744 ± 0.13 | 3.175 ± 0.086 | 2.424 ± 0.065 | 2.123 ± 0.056
x1 = 0.06582 | 8.699 ± 0.24 | 5.748 ± 0.16 | 4.183 ± 0.11 | 3.578 ± 0.096
x1 = 0.08624 | 12.21 ± 0.34 | 7.98 ± 0.22 | 5.611 ± 0.15 | 4.732 ± 0.13
x1 = 0.1165 | 18.05 ± 0.51 | 11.05 ± 0.3 | 7.815 ± 0.21 | 6.642 ± 0.18

Cc1cccc(O)c1 + CCC(=O)O
viscosity [mPa·s]
Conditions | x2 = 0.1345 | x2 = 0.2591 | x2 = 0.3747 | x2 = 0.4825 | x2 = 0.5831 | x2 = 0.6772 | x2 = 0.7654 | x2 = 0.8483 | x2 = 0.9264
298.15 K | 9.375 ± 1.1 | 7.067 ± 0.85 | 5.436 ± 0.69 | 4.234 ± 0.56 | 3.319 ± 0.44 | 2.606 ± 0.35 | 2.045 ± 0.28 | 1.606 ± 0.23 | 1.269 ± 0.18
308.15 K | 5.793 ± 0.73 | 4.756 ± 0.62 | 3.908 ± 0.52 | 3.221 ± 0.43 | 2.608 ± 0.35 | 2.105 ± 0.29 | 1.658 ± 0.23 | 1.316 ± 0.19 | 1.088 ± 0.16
318.15 K | 4.646 ± 0.61 | 3.935 ± 0.52 | 3.285 ± 0.44 | 2.719 ± 0.37 | 2.255 ± 0.31 | 1.884 ± 0.26 | 1.566 ± 0.22 | 1.277 ± 0.18 | 0.9609 ± 0.14

CCCCC(CC)COP(=O)(O)OCC(CC)CCCC (stereo not given) + CCCO
303.15 K
Conditions | viscosity [mPa·s]
x1 = 0.0388 | 2.397 ± 0.06
x1 = 0.0845 | 3.204 ± 0.08
x1 = 0.1765 | 4.994 ± 0.12
x1 = 0.2522 | 6.571 ± 0.16
x1 = 0.3449 | 8.647 ± 0.2
x1 = 0.4687 | 11.29 ± 0.26
x1 = 0.6123 | 13.8 ± 0.32
x1 = 0.7274 | 15.62 ± 0.36
x1 = 0.8109 | 16.82 ± 0.39
x1 = 0.9261 | 18.45 ± 0.43
